Experimental data as given in paper PMC3794980, “Identification of Conserved and HLA Promiscuous DENV3 T-Cell Epitopes” (PLoS Neglected Tropical Diseases, 2013).
Where two headings read alike, the source gives them in different places. Where no end group is shown, it is not given here.

Columns and labels:
Assay in all cases: biochemical
Format in all cases: binding
DRB5*0101 = DRB5*0101 (Homo sapiens, UniProt P01903+Q30154)
DRB1*0101 = DRB1*0101 (Homo sapiens, UniProt P01903+P01911, A100R/D57E/F55L/F60I/F76Y/I96L/L162R/M171V/P40L/Q125E/R42F/V115G/Y59C)
DRB1*0405 = DRB1*0405 (Homo sapiens, UniProt P01903+P01911, A100R/A169T/D86S/F76Y/I96L/K127E/L162R/M171V/N62H/P40V/Q125Y/R42H/S133A/S149N/S66Y/V115G/V209L/W38E)
DRB1*0701 = DRB1*0701 (Homo sapiens, UniProt P01903+P01911, A100R/A102G/A103Q/D57E/D86V/E43K/F76Y/K127E/L162R/M171V/P40G/Q125H/Q99D/R33Q/R42Y/R54Q/S133A/S66F/T210M/V115G/Y107V/Y59L/Y89S)
DRB1*0301 = DRB1*0301 (Homo sapiens, UniProt P01903+P01911, A100K/A102G/A103R/A169T/F55Y/I96L/K41T/L162R/M171V/P40S/Q125H/Q178H/Q39Y/R42S/S66N/T106N/T262R/W38E/Y61H)
DRB1*0301, sequence (P01903 26-254, other chains not shown): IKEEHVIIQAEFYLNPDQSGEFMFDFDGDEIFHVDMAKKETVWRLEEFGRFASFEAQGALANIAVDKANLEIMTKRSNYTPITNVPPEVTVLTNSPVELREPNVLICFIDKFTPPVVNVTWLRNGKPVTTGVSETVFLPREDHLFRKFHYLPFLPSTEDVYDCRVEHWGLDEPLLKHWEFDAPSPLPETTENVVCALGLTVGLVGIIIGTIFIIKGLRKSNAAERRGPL

DRB1*1302 = DRB1*1302 (Homo sapiens, UniProt P01903+P01911, A100E/A169T/K41T/L162R/M171V/P40S/Q125H/Q178H/Q39Y/Q99D/R42S/S66N/T262R/V115G/W38E/Y61H)
DRB1*1302, sequence (P01903 26-254 limits assumed, other chains not shown): as the sequence (P01903 26-254, other chains not shown) above

DRB1*0802 = DRB1*0802 (Homo sapiens, UniProt P01903+P01911, A100R/A103L/A169T/F76Y/H45Y/I96F/K41T/L162R/M171V/P40S/Q125H/Q178H/Q39Y/Q99D/R218S/R42G/S66Y/V115G/W38E)
DRB1*0901 = DRB1*0901 (Homo sapiens, UniProt P01903+P01911, A100R/A103E/D57H/D86V/F55Y/F60I/F76Y/I96F/K127E/L162R/M171V/P40D/Q125H/Q99R/R33Q/R42F/S133A/S66N/T210M/V115G/W38K/Y107V/Y59G/Y89S)
DRB3*0101 = DRB3*0101 (Homo sapiens, UniProt P01903+P79483)
DRB1*0401 = DRB1*0401 (Homo sapiens, UniProt P01903+P01911, A100K/A169T/F76Y/I96L/K127E/L162R/M171V/N62H/P40V/Q125Y/R42H/S133A/S149N/S66Y/V115G/V209L/W38E)
DRB1*0404 = DRB1*0404 (Homo sapiens, UniProt P01903+P01911, A100R/A169T/F76Y/I96L/K127E/L162R/M171V/N62H/P40V/Q125Y/R42H/S133A/S149N/S66Y/V209L/W38E)
DRB1*1501 = DRB1*1501 (Homo sapiens, UniProt P01903+P01911)
DRB4*0101 = DRB4*0101 (Homo sapiens, UniProt P01903+P13762, G164S)
[1] = competitive inhibition of radiolabeled standard peptide, DRB1*1302, read-out: Binding Affinity (nM) DRB1*1302
[2] = competitive inhibition of radiolabeled standard peptide, DRB1*0901, read-out: Binding Affinity (nM) DRB1*0901

For `CC[C@H](C)[C@H](NC(=O)[C@H](C)NC(=O)[C@H](CC(N)=O)NC(=O)[C@H](C)NC(=O)[C@H](CC(C)C)NC(=O)[C@H](CCC(N)=O)NC(=O)[C@H](CCCNC(=N)N)NC(=O)[C@H](Cc1c[nH]cn1)NC(=O)[C@H](CCC(=O)O)NC(=O)[C@@H]1CCCN1)C(=O)N[C@@H](Cc1ccccc1)C(=O)N[C@@H](CCCCN)C(=O)N[C@@H](CC(C)C)C(=O)N[C@H](C(=O)N[C@@H](Cc1ccc(O)cc1)C(=O)N[C@@H](CCC(N)=O)C(=O)N[C@@H](CC(N)=O)C(=O)O)[C@@H](C)O` [NS5 558-574], the IC50 (DRB5*0101) was 391 nM, the IC50 (DRB1*0101) was 489 nM and the IC50 (DRB1*0405) was 667 nM. For the same compound, the IC50 (DRB1*0701) was 134 nM, the IC50 (DRB1*0301) was 586 nM and the IC50 (DRB1*1302; [1]) was 1400 nM. It also gave an IC50 (DRB1*0802) of 539 nM, an IC50 (DRB1*0901; [2]) of 1930 nM and an IC50 (DRB3*0101) of 1080 nM. It also gave an IC50 (DRB1*0401) of 2820 nM, an IC50 (DRB1*0404) of 2650 nM and an IC50 (DRB1*1501) of 401 nM.

`CC[C@H](C)[C@H](NC(=O)[C@@H](N)CCCCN)C(=O)N1CCC[C@H]1C(=O)NCC(=O)NCC(=O)N[C@@H](C)C(=O)N[C@@H](CCSC)C(=O)N[C@@H](Cc1ccc(O)cc1)C(=O)N[C@@H](C)C(=O)N[C@@H](CC(=O)O)C(=O)N[C@@H](CC(=O)O)C(=O)N[C@H](C(=O)N[C@@H](C)C(=O)NCC(=O)N[C@@H](Cc1c[nH]c2ccccc12)C(=O)N[C@@H](CC(=O)O)C(=O)N[C@H](C(=O)O)[C@@H](C)O)[C@@H](C)O` [NS5 523-539] gave an IC50 (DRB5*0101) of 4120 nM, an IC50 (DRB1*0101) of 733 nM and an IC50 (DRB1*0405) of 3170 nM. The IC50 (DRB1*0701) was 6560 nM, the IC50 (DRB1*0301) was 9.3 nM and the IC50 (DRB1*1302; [1]) was 1430 nM. The IC50 (DRB4*0101) was 445 nM, the IC50 (DRB1*0802) was 1160 nM and the IC50 (DRB1*0901; [2]) was 13200 nM. It also gave an IC50 (DRB3*0101) of 45 nM, an IC50 (DRB1*0401) of 7.3 nM and an IC50 (DRB1*0404) of 3130 nM. The IC50 (DRB1*1501) was 15100 nM.

`CC(C)C[C@H](NC(=O)[C@H](CCC(=O)O)NC(=O)[C@H](CCCCN)NC(=O)[C@@H](N)CCCNC(=N)N)C(=O)N[C@@H](CC(C)C)C(=O)N[C@H](C(=O)N[C@H](C(=O)N[C@@H](Cc1ccccc1)C(=O)N[C@@H](CCCCN)C(=O)N[C@@H](CC(N)=O)C(=O)N[C@@H](C)C(=O)N[C@@H](Cc1c[nH]cn1)C(=O)N[C@@H](C)C(=O)N[C@@H](CCCCN)C(=O)N[C@@H](CCCCN)C(=O)O)[C@@H](C)O)C(C)C` [Envelope 231-245] was tested, and the IC50 (DRB5*0101) was 25 nM, the IC50 (DRB1*0101) was 5.1 nM and the IC50 (DRB1*0405) was 31 nM. The IC50 (DRB1*0701) was 3780 nM, the IC50 (DRB1*0301) was 2320 nM and the IC50 (DRB1*1302) was 17200 nM. For the same compound, the IC50 (DRB4*0101) was 57 nM, the IC50 (DRB1*0802) was 7.2 nM and the IC50 (DRB1*0901) was 48 nM. The IC50 (DRB3*0101) was 16500 nM, the IC50 (DRB1*0401) was 3.5 nM and the IC50 (DRB1*0404) was 1590 nM. It also gave an IC50 (DRB1*1501) of 5.2 nM.

For `CC[C@H](C)[C@H](NC(=O)[C@H](C)NC(=O)[C@H](CC(N)=O)NC(=O)[C@H](C)N)C(=O)N[C@@H](Cc1ccccc1)C(=O)N[C@@H](CCCCN)C(=O)N[C@@H](CC(C)C)C(=O)N[C@H](C(=O)N[C@@H](Cc1ccc(O)cc1)C(=O)N[C@@H](CCC(N)=O)C(=O)N[C@@H](CC(N)=O)C(=O)N[C@@H](CCCCN)C(=O)N[C@H](C(=O)N[C@H](C(=O)N[C@@H](CCCCN)C(=O)N[C@H](C(=O)N[C@@H](CCC(N)=O)C(=O)O)C(C)C)C(C)C)C(C)C)[C@@H](C)O` [NS5 564-580], the IC50 (DRB5*0101) was 305 nM, the IC50 (DRB1*0101) was 19 nM and the IC50 (DRB1*0405) was 1680 nM. It also gave an IC50 (DRB1*0701) of 25 nM, an IC50 (DRB1*0301) of 222 nM and an IC50 (DRB1*1302) of 11 nM. It also gave an IC50 (DRB1*0802) of 2600 nM, an IC50 (DRB1*0901) of 100 nM and an IC50 (DRB3*0101) of 576 nM. For the same compound, the IC50 (DRB1*0401) was 390 nM, the IC50 (DRB1*0404) was 4810 nM and the IC50 (DRB1*1501) was 28 nM.

`CC[C@H](C)[C@H](N)C(=O)N[C@H](C(=O)NCC(=O)N[C@H](C(=O)N[C@@H](CC(C)C)C(=O)N[C@@H](CCC(=O)O)C(=O)N[C@@H](CCC(N)=O)C(=O)NCC(=O)N[C@@H](CCCCN)C(=O)N[C@@H](CCCNC(=N)N)C(=O)N[C@H](C(=O)N[C@@H](CC(C)C)C(=O)N[C@H](C(=O)N1CCC[C@H]1C(=O)N[C@@H](CCC(N)=O)C(=O)O)[C@@H](C)O)[C@@H](C)O)C(C)C)[C@@H](C)CC` [NS1 93-107] showed an IC50 (DRB5*0101) of 3070 nM, an IC50 (DRB4*0101) of 3700 nM and an IC50 (DRB3*0101) of 4350 nM.

`CC[C@H](C)[C@H](NC(=O)CNC(=O)[C@H](CO)NC(=O)[C@H](CCCCN)NC(=O)[C@H](CCCCN)NC(=O)[C@H](Cc1ccc(O)cc1)NC(=O)[C@H](CC(C)C)NC(=O)[C@H](CC(=O)O)NC(=O)[C@H](Cc1ccccc1)NC(=O)[C@H](CCC(=O)O)NC(=O)[C@@H](N)CCCCN)C(=O)N[C@H](C(=O)N[C@@H](CCC(=O)O)C(=O)N[C@H](C(=O)N[C@@H](CC(=O)O)C(=O)N[C@@H](CCCNC(=N)N)C(=O)N[C@H](C(=O)O)[C@@H](C)O)C(C)C)[C@@H](C)O` [NS5 23-39] showed an IC50 (DRB5*0101) of 10100 nM, an IC50 (DRB4*0101) of 3430 nM and an IC50 (DRB3*0101) of 5800 nM.

`CSCC[C@H](NC(=O)[C@H](CCSC)NC(=O)[C@H](CC(N)=O)NC(=O)[C@H](Cc1ccc(O)cc1)NC(=O)[C@@H](NC(=O)[C@H](CS)NC(=O)[C@H](CO)NC(=O)CN)C(C)C)C(=O)NCC(=O)N[C@@H](CCCCN)C(=O)N[C@@H](CCCNC(=N)N)C(=O)N[C@@H](CCC(=O)O)C(=O)N[C@@H](CCCCN)C(=O)N[C@@H](CCCCN)C(=O)N[C@@H](CC(C)C)C(=O)NCC(=O)N[C@@H](CCC(=O)O)C(=O)O` [NS5 447-463] was tested, and the IC50 (DRB5*0101) was 25 nM, the IC50 (DRB4*0101) was 8470 nM and the IC50 (DRB3*0101) was 1760 nM.

Compound `CC[C@H](C)[C@H](NC(=O)[C@H](CCCNC(=N)N)NC(=O)[C@H](CCCCN)NC(=O)[C@@H](NC(=O)[C@H](CCCNC(=N)N)NC(=O)[C@H](CCC(=O)O)NC(=O)CNC(=O)[C@@H](NC(=O)[C@@H](NC(=O)[C@H](CC(=O)O)NC(=O)[C@H](CCSC)NC(=O)[C@H](CC(N)=O)NC(=O)[C@@H]1CCCN1C(=O)[C@@H](NC(=O)[C@H](CCC(=O)O)NC(=O)[C@@H]1CCCN1)[C@@H](C)O)C(C)C)[C@@H](C)CC)[C@@H](C)CC)C(=O)N[C@@H](CCCCN)C(=O)O` [NS5 268-284] has an IC50 (DRB5*0101) of 2830 nM, an IC50 (DRB4*0101) of 869 nM and an IC50 (DRB3*0101) of 1390 nM.

`CC[C@H](C)[C@H](NC(=O)[C@@H](NC(=O)[C@H](CC(=O)O)NC(=O)[C@H](CCSC)NC(=O)[C@@H](NC(=O)[C@@H](NC(=O)CNC(=O)[C@H](CCCCN)NC(=O)[C@@H]1CCCN1C(=O)[C@@H](NC(=O)[C@@H]1CCCN1C(=O)[C@H](CCCNC(=N)N)NC(=O)[C@H](CCC(N)=O)NC(=O)[C@@H](NC(=O)[C@H](CCCCN)NC(=O)[C@@H](NC(=O)[C@@H](N)C(C)C)C(C)C)C(C)C)[C@@H](C)O)[C@@H](C)O)C(C)C)[C@@H](C)CC)C(=O)O` [NS5 576-592] gave an IC50 (DRB5*0101) of 84 nM, an IC50 (DRB4*0101) of 108 nM and an IC50 (DRB3*0101) of 2910 nM.

AILPEYGTLGLECSP [Envelope 171-185] showed an IC50 (DRB5*0101) of 17200 nM, an IC50 (DRB4*0101) of 787 nM and an IC50 (DRB3*0101) of 12600 nM.

Work on `CC[C@H](C)[C@H](N)C(=O)N[C@@H](CC(=O)O)C(=O)N[C@@H](CC(=O)O)C(=O)N[C@@H](CCCNC(=N)N)C(=O)N[C@@H](Cc1ccccc1)C(=O)N[C@@H](C)C(=O)N[C@@H](CC(N)=O)C(=O)N[C@@H](C)C(=O)N[C@@H](CC(C)C)C(=O)N[C@@H](CC(C)C)C(=O)N[C@@H](C)C(=O)N[C@@H](CC(C)C)C(=O)N[C@@H](CC(N)=O)C(=O)N[C@@H](CC(=O)O)C(=O)N[C@@H](CCSC)C(=O)NCC(=O)N[C@@H](CCCCN)C(=O)O` [NS5 670-686] yielded an IC50 (DRB5*0101) of 478 nM, an IC50 (DRB4*0101) of 971 nM and an IC50 (DRB3*0101) of 7500 nM.
